We go through three molecules from patent US5182113A, “Factor Xa inibitor from leech and pharmaceutical compositions containing same” (Bio-Technology General Corp., priority 1988, dated 1993).

Test [1] concerns F.Xa. Particulars: substrate affinity; cited from earlier work.
Test [2] concerns bovine thrombin. The test is described as follows: Inhibition of bovine thrombin activity on chromogenic substrate. The note with it: result in words. It counts as biochemical. Here is the method:
(§1) Regarding the methods, synthetic substrates having a chromogenic end group such as pNA (para- nitroanilide) are preferably used, enabling easy monitoring of the progress of the coagulation by spectrophotometer methods. […] The reactions were monitored at 405 nm in a spectrophotometer connected to a computer and the kinetic parameter were calculated from the appropriate extinction coefficients by a Jackson-Labanowski linear regression program. The measurements were carried out in disposable polystyrene cuvettes at pH of 7.8 and a temperature of 25° C.

Test [3] concerns bovine F.Xa. Nature of the test: Affinity binding to bovine F.Xa immobilized on Affi-Gel 10. The note with it: leech saliva passed through column, pH 7.9. Here is the method:
The inhibitor/modulator of the present invention may be isolated from the saliva by adsorption on an Affi-Gel column on which bovine F.Xa is fixed and subsequent elution with acetic acid. Hirudin was not adsorbed on said gel. Affi-Gel 10 is used, which is a derivatized ross-linked agarose containing a 10-atom spacer arm esterified to N-hydroxysuccinimide. The capacity of this gel is 10 micromoles/ml.
1. Coupling. To 1ml washed Affi-Gel 10 in a mini-column were added 2ml of a dialyzed BXa solution (40 nmoles) in 0.05 M Hepes/0.1 M NaCl buffer pH 7.5. The column was shaken for 2 h at room temp. The supernatant was then run off the column, which was not allowed to dry. Ninety four percent of the BXa load was bound to the gel.
3. Affinity binding of XaM. Leech saliva (40 ml, 305 pmoles XaM) was adjusted to pH 7.9 by adding 1% v/v 1M Tris pH 8 and was passed through the column. Ninety two percent of the XaM was bound to the gel. Hirudin was not bound.

Test [4] relates to bovine Factor Xa. The test is described as follows: Inhibition of bovine Xa activity on chromogenic substrate. It counts as biochemical. The note with it: result in words. Here is the method:
as §1

Test [5] relates to bovine Factor Xa. The note with it: literature (Tuszynski, Gasic and Gasic 1987); cited from earlier work.

“Also recorded” adds a separate entry of the source.

Regarding `N=C(N)NCCC[C@H](NC(=O)[C@@H]1CCCCN1C(=O)[C@H](N)Cc1ccccc1)C(=O)Nc1ccc([N+](=O)[O-])cc1` [S2238, D-Phe-Pipecolyl-L-Arg-pNa], the Km in test [1] is 46.9 µM.

Consider hirudin, for which the inhibition of thrombin entry in test [2] was “inhibits thrombin”. Moreover, in test [3], the “adsorption on Affi-Gel with fixed bovine F.Xa” value is listed as “not adsorbed; also recorded: not bound”. The “inhibition of bovine F.Xa” value in test [4] is given as “does not inhibit bovine F.Xa”.

B1: antistasin (protein, UniProt P15358 18-136, looked up)
Antistasin: QGPFGPGCEEAGCPEGSACNIITDRCTCSGVRCRMHCPHGFQRSRYGCEFCKCRLEPMKATCDISECPEGMMCSRLTNKCDCKIDINCRKTCPNGLKRDKLGCEYCECRPKRKLIPRLS
In the case of B1, the “remaining BXa activity at which the dose-response curve flattens out” value in test [5] is given as “about 50%”.

By Km is commonly meant the substrate concentration at which the rate is half of its maximum.
